# From patent publication US20130136778A1, “PTEROSTILBENE (PTER) FOR USE IN THE PREVENTION AND/OR TREATMENT OF SKIN DISEASES, DAMAGES OR INJURIES” (GREEN MOLECULAR, S.L., priority 2009, published 2013)
# Tests used:
# SKH-1 mice [1] = test: Thickness of the epidermis after acute UV-B exposure of 360 mJ/cm2; format: in vivo
# Method: UVB Acute exposure protocols were used: Mice underwent a single exposure of 360 mJ/cm2. The study was conducted at 24 hours after exposure. This protocol was used to evaluate the photoprotective effect of the compounds studied. With the same acute-phase protocol mice from all groups were irradiated. Subsequently mice remained in the animal storage area for a week to see the evolution of the inflammatory response and edema. • 1. Edema formation: skinfold thickness was determined with a caliper 24 hours after the first exposure. • 2. Study of the thickness of the epidermis after exposure to acute irradiation (360 mj/cm^2 24 h hours and 7 days after irradiation). • 3. Histological studies: measuring, in the pictures obtained from histological sections, the thickness of the epidermis. For studies of acute exposure skin samples were taken from the back of the mouse. These samples were fixed with 4% paraformaldehyde (24 hours) and embedded in paraffin. Following cutting the samples were stained with hematoxylin and eosin. The two protocols of UV-B exposure used were: • Intense exposure after a single exposure of 360 mJ/cm^2. The study was carried out 24 hours after the exposure. This protocol was used to assess the photoprotective effects of the compounds studied. • Intense exposure after a single exposure of 360 mJ/cm^2. The study was carried out 1 week after the exposure. The mice were kept in the shed for a week to observe the evolution of the inflammatory and edematous response. At 24 hours or 1 week after the administration of the different treatments the mice were sacrificed and their skin fixed with 4% PFA. To measure the thickness of the epidermis to evaluate possible hyperplasia, a computer program was used, Image J, calibrated with the assistance of a Neubauer camera which allowed the measuring of the epidermis. Results obtained were statistically analyzed by ANOVA and contrasted by the Tukey test and grouped according to the significant differences. […] Therefore PTER alone could be used efficiently in the prevention of skin diseases, injuries or damages induced by ultraviolet B radiation. The evaluation of skin thickness was carried out by using computer software (IMAGE J). Results obtained by ANOVA were contrasted by the Tukey test and grouped according to the significant differences. […] Therefore PTER separately could be used efficiently in the prevention of skin diseases, damages or injuries induced by ultraviolet B radiation.
# [2] = Absorption spectrum of polyphenols (mechanical filter capacity); format: physicochemical; settings: 1 mM in pure ethanol, 200-800 nm
# Method: A solution of 1 mM of each polyphenol was prepared (PTER, Resveratrol and QUER) in absolute ethanol (HPLS quality; Quima) and the absorption spectrum was studied between 200 and 800 nm using a Multiskan Spectrum (ThermoScientific).
# With the purpose of studying the capacity of the polyphenols used in this study, we decided to evaluate the absorption of light throughout the ultraviolet light spectrum as shown in FIG. 13.
# SKH-1 mice [3] = test: Experimental atopic dermatitis induced by TNCB; format: in vivo
# Method: Also, on certain specific days prior to sacrificing them, the mice were assessed by a veterinarian who analyzed the skin lesions, qualifying them in function of: • Erythema: redness of the skin conditioned by inflammation due to the excess of blood irrigation by the dilation of blood vessels. • Excoriation: or irritation of the skin with flaky aspect, increase in the descaling of the skin which could result in hyperkeratosis. • The depth of the lesion that could reach the dermis producing soars or ulcers. Each variable was evaluated on a scale of 0-4, 0, for none; 1, for mild; 2, for moderate; 3, marked; and 4, very marked. The addition of the 3 values of each mouse indicated the degree of inflammation. […] Furthermore, the continuous administration of TNCB ointment increased the production of T-lymphocytes, mastocytes and IgE in the serum, as it occurs among human patients with atopic dermatitis. […] Nonetheless, the objective evaluation of these characteristics is complex, and the measuring of the loss of transepidermal water (PTEA or TEWL) assessed through the Tewameter TM 210 system (CK electronics, Germany) is considered an indicator of the functions of cutaneous “barriers” (g/h/cm2). […] TEWL readings were performed continuously until the metrics were stabilized, which can produce between 30-60 seconds of readings.
structure (smiles),measurement,setting,value
"COc1cc(/C=C/c2ccc(O)cc2)cc(OC)c1 [PTER, 3,5-dimethoxy-4′-hydroxy-trans-resveratrol]","thickness of the epidermis 24 hours after irradiation, applied after UVB",SKH-1 mice [1]; FIG. 2,"more efficient in the treatment of skin diseases, injuries or damages caused by radiation, when applied after the exposure to UVB, than the commercial creams (Vichy, Heliocare and Isdin)"
same,"thickness of the epidermis 24 hours after irradiation, applied before UVB",SKH-1 mice [1]; FIG. 2,"more efficient as photoprotector, when applied before the exposure to UVB, than the commercial creams (Vichy, Heliocare and Isdin)"
same,thickness of the epidermis 24 hours after irradiation (before or after application),"SKH-1 mice [1]; FIG. 2, versus group treated only with UV-B",produced better results than even commercial photoprotectors and Resveratrol
same,"thickness of the epidermis 1 week after irradiation, applied after UVB",SKH-1 mice [1]; FIG. 3,"more efficient in the treatment of skin diseases, injuries or damages caused by radiation, when applied after the exposure to UVB, than the commercial creams (Vichy, Heliocare and Isdin)"
same,"thickness of the epidermis 1 week after irradiation, applied before UVB",SKH-1 mice [1]; FIG. 3,"more efficient as photoprotector, when applied before the exposure to UVB, than the commercial creams (Vichy, Heliocare and Isdin)"
same,"absorption of light, range of maximum absorption",[2],peaks or maximum absorption in the range of Ultraviolet B
same,increase in the skinfold 24 hours after the first administration of TNCB,"SKH-1 mice [3]; FIG. 19, 10 μmoles polyphenols, 0.5 μmoles dexamethasone 24 h before 1% TNCB",decreased their inflammatory effect due to the TNCB agent
same,index of lesions (macroscopic assessment),"SKH-1 mice [3]; TNCB model, up to 4 applications of TNCB",produced less serious lesions than with the use of dexamethasone or with respect to the lack of treatment
